In US20120016010A1, “RNA Interference Mediated Inhibition of BTB and CNC Homology 1, Basic Leucine Zipper Transcription Factor 1 (BACH1) Gene Expression Using Short Interfering Nucleic Acid (siNA)” (Merck Sharp & Dohme Corp, priority 2009, published 2012):

Experiments:
Format in all cases: cell-based
Bach1 mRNA = test: Dose-response curve of Bach1 mRNA knock-down in human A549 cells; conditions: three experiments, mean ± standard deviation; for IC50: Table 4, Bach1 mRNA knock-down; for Maximum % KD in DRC: Table 4, Bach1 mRNA, 12 concentrations 0.083 fM to 30 nM
Procedure: All calculations of IC50s were performed using SigmaPlot 10.0 software. The data were analyzed using the sigmoidal dose-response (variable slope) equation for simple ligand binding. In all of the calculations of the % knock-down, the calculation was made relative to the normalized level of expression of the gene of interest in the samples treated with the non-targeting control (Ctrl siNA) unless otherwise indicated. Summary data, as to potency and efficacy for Bach1 mRNA knock-down in human cells for certain siNA molecules, is presented in Table 4. Cells for the experiments were treated with 12 concentrations of siNA ranging from 0.083 fM to 30 nM. All of the data is presented as % knockdown of Bach1 normalized against the expression of GAPDH mRNA expression level. Then the data was determined as a % knockdown relative to the non-targeting control siNA.

HMOX-1 mRNA = HMOX-1 mRNA increase in response to Bach1 siNA in human A549 cells; conditions: 24 hrs post-transfection, mean ± SD
Procedure: A series of probes and primers were used to detect the various mRNA transcripts of the genes of Bach1, HMOX-1, and GAPDH in mouse and human cell lines. The assays were performed on an ABI 7900 instrument, according to the manufacturer's instructions. A TaqMan Gene Expression Master Mix (provided in the Cells-to-CTT™, Applied Biosystems, Cat # 4399002) was used. The PCR reactions were carried out at 50° C. for 2 min, 95° C. for 20 min followed by 40 cycles at 95° C. for 15 secs and 60° C. for 1 min
All calculations of IC50s were performed using SigmaPlot 10.0 software. The data were analyzed using the sigmoidal dose-response (variable slope) equation for simple ligand binding. In all of the calculations of the % knock-down, the calculation was made relative to the normalized level of expression of the gene of interest in the samples treated with the non-targeting control (Ctrl siNA) unless otherwise indicated.
For the statistical measures of significance for the HMOX-1 mRNA increase in response to Bach1 siNA treatment, a two-tailed Student's t-test on the dCt values for wells treated with the non-targeting control siNA compared with the dCt values for wells treated with the highest concentration of each respective active siNA, was performed.
Various siNAs were also evaluated for their potential to knock-down Bach1 protein. As no validated reagents were available to directly track changes in protein expression, this was done by assessing the increase in HMOX-1 mRNA in response to increasing doses of the active Bach1 siNAs.
The siNAs were tested at a single time point post-transfection (24 hrs). This was the time point at which the Bach1 mRNA levels had previously been determined. The non-targeting control siNA was also tested on each plate of samples and was found, across the six plates to show a maximum of 29±12% increase in the level of HMOX-1.
The comparison of the maximum percentage increase in HMOX-1 and EC50 and the maximum percentage decrease of Bach1 and IC50 are shown in Table 6. Table 6 also includes the measure of statistical significance for the increase in HMOX-1 mRNA levels in response to treatment with the respective Bach1 siNA.

TLR8 = biological target: T1, TLR8 (Homo sapiens, UniProt Q9NR97)
T1 construct: expressed in transfected cells
T1 sequence (Q9NR97 27-1041): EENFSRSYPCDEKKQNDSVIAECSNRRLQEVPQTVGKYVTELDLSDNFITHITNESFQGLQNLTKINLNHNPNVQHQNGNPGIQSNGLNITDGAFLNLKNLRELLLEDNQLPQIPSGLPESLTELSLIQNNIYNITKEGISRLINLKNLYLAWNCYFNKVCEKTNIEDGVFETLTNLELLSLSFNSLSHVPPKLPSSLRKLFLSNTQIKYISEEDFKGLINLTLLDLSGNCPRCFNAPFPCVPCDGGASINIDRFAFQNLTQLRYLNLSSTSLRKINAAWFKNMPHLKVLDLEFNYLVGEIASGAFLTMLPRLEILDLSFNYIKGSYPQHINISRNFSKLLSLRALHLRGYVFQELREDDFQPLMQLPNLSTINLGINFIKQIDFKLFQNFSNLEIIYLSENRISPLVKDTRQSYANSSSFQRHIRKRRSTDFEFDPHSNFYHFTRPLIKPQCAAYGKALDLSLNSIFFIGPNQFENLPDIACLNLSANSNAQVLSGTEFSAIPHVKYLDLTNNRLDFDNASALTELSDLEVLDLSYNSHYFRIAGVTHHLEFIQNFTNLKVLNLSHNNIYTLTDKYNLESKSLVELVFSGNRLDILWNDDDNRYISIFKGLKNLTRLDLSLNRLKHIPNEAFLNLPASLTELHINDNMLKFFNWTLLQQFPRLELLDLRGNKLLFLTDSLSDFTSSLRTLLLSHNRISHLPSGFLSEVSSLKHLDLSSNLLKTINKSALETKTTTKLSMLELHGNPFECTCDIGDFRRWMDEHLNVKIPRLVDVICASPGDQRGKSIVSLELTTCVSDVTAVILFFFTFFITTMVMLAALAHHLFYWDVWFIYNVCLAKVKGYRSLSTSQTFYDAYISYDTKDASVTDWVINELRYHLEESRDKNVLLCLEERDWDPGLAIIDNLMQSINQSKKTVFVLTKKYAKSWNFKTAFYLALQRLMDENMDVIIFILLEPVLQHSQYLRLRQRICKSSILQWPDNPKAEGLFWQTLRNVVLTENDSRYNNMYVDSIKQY
Procedure: Human U205-TLR7 and Human U205-TLR8 cells were grown at 37 degrees in the presence of 5% CO2 and were cultured in Dulbeco's modified Eagle's Medium (DMEM), 1% non essential amino acids, supplemented with fetal bovine serum at 10% and 100 ug/ml streptomycin and 100 u/ml penicillin. Stable expression of TLR7 and TLR8 was maintained by the addition of 300 ug/ml […].
TLR7 and TLR8 expressing U2OS osteosarcoma cells were seeded in 96-well plate format at a concentration of 2×10^4 cells/well 24 hours prior to transfection. Cells were transfected with the siNAs using DharmaFECT1 lipid transfection reagent using Resiquimod (R848) and the LyoVec-complexed, GU-rich oligonucleotide ssRNA40 respectively as controls (100 μl/well). (DharmaFECT1 was used as the delivery agent for the siNAs as it combines low immunostimulatory effects with high delivery efficiency.) The treatment media were replaced after 6 hours with antibiotic containing DMEM. Cells were harvested 24 hours following transfection. […] An agonist concentration range of 4-10 μg/ml was established since it caused optimal levels of IL8 mRNA expression for the assay.
TLR7 and TLR8 mediated immunostimulation was measured by the increase in IL8 mRNA levels when the siNAs were formulated with DharmaFect1 (Gibco BRL) and delivered to U2OS cells that were engineered to stably express TLR7 or TLR8. The cells were treated with the TLR7 and TLR8 agonists Resiquimod (R848) and ssRNA40/LyoVec respectively to act as positive controls for IL8 mRNA induction. IL8 mRNA levels were used as a biomarker of TLR7 and TLR8 mediated immunostimulation.

Substance | IC50 (Bach1 mRNA) [nM] | Maximum % KD in DRC (Bach1 mRNA) [%] | EC50 (HMOX-1 mRNA) [pM] | Maximum % Hmox-1 Increase in DRC (HMOX-1 mRNA) [%] | Immunostimulation TLR8 mediated in Human U2OS-TLR8 cells IL8 mRNA increase n = 4 individual expts (TLR8) | TLR8 mediated immunostimulatory activity (IL8 mRNA induction) (TLR8)
29947-DC (sense GGAAUCCUGCUUUCAGUUUTT; antisense AAACUGAAAGCAGGAUUCCUU; inverted abasic caps (B), 2'-modified nucleotides, further chemistry not given here) | 0.027 ± 0.005 | 86 ± 0.5 | 37.7 ± 21.5 | 187 ± 71 | No significant effect up to 100 nM | no TLR8 mediated immunostimulatory activity
29956-DC (sense GUCUGAGUGUCCGUGGUUATT; antisense UAACCACGGACACUCAGACUU; inverted abasic caps (B), 2'-modified nucleotides, further chemistry not given here) | 0.028 ± 0.018 | 80 ± 7.7 | 30.9 ± 19.9 | 308 ± 87 | No significant effect up to 100 nM | –
29957-DC (sense GCAGUUACUUCCACUCAAGTT; antisense CUUGAGUGGAAGUAACUGCUU; inverted abasic end caps, TT overhangs, modified nucleotides, further chemistry not given here) | 0.039 ± 0.013 | 87 ± 0.9 | 33.6 ± 20 | 213 ± 29 | Upregulation up to 100 nM | –
29961-DC (sense CUACACUGCUAAACUGAUUTT; antisense AAUCAGUUUAGCAGUGUAGUU; inverted abasic end caps, TT overhangs, modified nucleotides, further chemistry not given here) | 0.01 ± 0.004 | 89 ± 2.2 | 10.4 ± 10 | 262 ± 87 | No significant effect up to 100 nM | no TLR8 mediated immunostimulatory activity
29964-DC (sense GAUUUGCAGGUGAUGUUAATT; antisense UUAACAUCACCUGCAAAUCUU; inverted abasic end caps, TT overhangs, modified nucleotides, further chemistry not given here) | 0.027 ± 0.015 | 87 ± 2.8 | 21.8 ± 15.5 | 240 ± 30 | No significant effect up to 100 nM | no TLR8 mediated immunostimulatory activity
29984-DC (sense GUUAAAGGAUUUGAACCUUTT; antisense AAGGUUCAAAUCCUUUAACUU; inverted abasic end caps, TT overhangs, modified nucleotides, further chemistry not given here) | – | – | – | – | No significant effect up to 100 nM | no TLR8 mediated immunostimulatory activity
29988-DC (sense AUUUGAACCUUUAAUUCAGTT; antisense CUGAAUUAAAGGUUCAAAUUU; inverted abasic end caps, TT overhangs, modified nucleotides, further chemistry not given here) | 0.063 ± 0.019 | 84 ± 0.9 | 38.2 ± 29.8 | 190 ± 62 | No significant effect up to 100 nM | no TLR8 mediated immunostimulatory activity
